Among the data in patent US10329294B2, “Pyrazolopyrimidine inhibitors of IRAK4 activity” (MERCK SHARP & DOHME CORP., priority 2015, dated 2019) are IC50 values, retold here.

Counter-ions that a name gives are not always drawn. Like-named read-outs stand apart in the source and are kept apart here.

This experiment has as its target IRAK4 (Homo sapiens (Human), UniProt Q9NWZ3). Put plainly: IRAK4 Kinase Assay. Type of experiment: biochemical. The note with it: IMAP fluorescence polarization, 0.5 nM GST tagged IRAK4, 100 μM ATP, 30 minutes at 25° C. In general terms: Polarisation of emitted light reports the rotation of a fluorescent probe.

Sequence of IRAK4 (Q9NWZ3 whole entry): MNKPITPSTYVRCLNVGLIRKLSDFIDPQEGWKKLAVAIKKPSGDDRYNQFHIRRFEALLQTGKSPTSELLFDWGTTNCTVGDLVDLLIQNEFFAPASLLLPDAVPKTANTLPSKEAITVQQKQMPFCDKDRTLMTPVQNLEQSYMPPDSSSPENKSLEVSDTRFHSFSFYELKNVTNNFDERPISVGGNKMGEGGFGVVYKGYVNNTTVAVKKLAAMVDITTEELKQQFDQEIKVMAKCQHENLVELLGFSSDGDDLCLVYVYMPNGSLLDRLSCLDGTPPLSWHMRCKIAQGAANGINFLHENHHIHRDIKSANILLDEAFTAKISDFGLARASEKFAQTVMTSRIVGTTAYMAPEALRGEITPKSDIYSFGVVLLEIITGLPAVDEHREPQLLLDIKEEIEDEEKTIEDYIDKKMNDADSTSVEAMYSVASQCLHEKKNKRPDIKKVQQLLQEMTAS
Description: The kinase activity of IRAK4 is determined by its ability to catalyze the phosphorylation of a fluorescent polypeptide substrate. The extent of phosphorylation is measured using the IMAP technology (Molecular Devices) where the phosphorylated fluorescent substrate binds to the large M(III)-based nanoparticles which reduces the rotational speed of the substrate and thus increases its fluorescent polarization (FP).
20 μL reaction mixture contains 10 mM TriHCl, pH 7.2, 0.5 nM GST tagged IRAK4 (SignalChem), 100 nM fluorescent peptide substrate (RP7030, Molecular Devices), 100 μM ATP, 1 mM DDT, 1 mM MgCl2, and 0.01% Tween 20. The reaction is initiated by the addition of ATP. After incubation for 30 minutes at 25° C., 60 μL of Progressive IMAP Reagent (Molecular Devices) is added to stop the reaction. Change in RP7030's FP is determined by a FP reader (Analyst HT, LJL BioSystems).

For the compound `Cn1cc(NC(=O)c2cnn3ccc(N4CC5CCC(C4)N5)nc23)c(C(F)F)n1` [Example 172, 5-(3,8-diazabicyclo[3.2.1]oct-3-yl)-N-[3-(difluoromethyl)-1-methyl-1H-pyrazol-4-yl]pyrazolo[1,5-a]pyrimidine-3-carboxamide trifluoroacetate], the concentration for half-maximal inhibition (IC50) (read-out: IRAK4 IC50) worked out at 1 nM. For the setting “IRAK4 IC50 (nM)”, `Cn1cc(NC(=O)c2cnn3ccc(N4CC5CNCC4COC5)nc23)c(C(F)(F)F)n1` (stereo not shown) [Example 212, 5-(3-Oxa-7,9-diazabicyclo[3.3.2]decan-9-yl)-N-(1-methyl-3-(trifluoromethyl)-1H-pyrazol-4-yl)pyrazolo[1,5-a]pyrimidine-3-carboxamide] returned an IC50 of 9 nM. As for `Cn1cc(NC(=O)c2cnn3ccc(N4CCCNCC4)nc23)c(C(F)F)n1` [Example 87, 5-(1,4-diazepan-1-yl)-N-[3-(difluoromethyl)-1-methyl-1H-pyrazol-4-yl]pyrazolo[1,5-a]pyrimidine-3-carboxamide trifluoroacetate], the IC50 (read-out: IRAK4 IC50) was determined as 4 nM.

As to `Cn1cc(NC(=O)c2cnn3ccc(N4C[C@H](O)C[C@@H](O)C4)nc23)c(C(F)F)n1` [Example 24, N-[3-(difluoromethyl)-1-methyl-1H-pyrazol-4-yl]-5-[(3R,5R)-3,5-dihydroxypiperidin-1-yl]pyrazolo[1,5-a]pyrimidine-3-carboxamide], under “read-out: IRAK4 IC50”, the IC50 stood at 4 nM. On the same count and under the same terms, with `Cn1cc(NC(=O)c2cnn3ccc(N4CCNCC(F)C4)nc23)c(C(F)(F)F)n1` (stereo not shown) [Example 27, 5-(6-fluoro-1,4-diazepan-1-yl)-N-[1-methyl-3-(trifluoromethyl)-1H-pyrazol-4-yl]pyrazolo[1,5-a]pyrimidine-3-carboxamide trifluoroacetate] the figure was 149 nM; with `Cn1cc(NC(=O)c2cnn3ccc(N4CC[C@@H](F)[C@@H](N)C4)nc23)c(C(F)F)n1` (single isomer, unassigned) [Example 178, 5-[(3S,4R)- or (3R,4S)-3-amino-4-fluoropiperidin-1-yl]-N-[3-(difluoromethyl)-1-methyl-1H-pyrazol-4-yl]pyrazolo[1,5-a]pyrimidine-3-carboxamide trifluoroacetate], 4 nM; with `C[C@@H]1CN(c2ccn3ncc(C(=O)Nc4cn(C)nc4C(F)(F)F)c3n2)[C@H](C)CN1` (relative stereo) [Example 75, 5-[cis-2,5-dimethylpiperazin-1-yl]-N-[1-methyl-3-(trifluoromethyl)-1H-pyrazol-4-yl]pyrazolo[1,5-a]pyrimidine-3-carboxamide trifluoroacetate], 55 nM.

In the case of `CC1CN(c2ccn3ncc(C(=O)Nc4cn(C)nc4C(F)(F)F)c3n2)C(C)CN1` (stereo not shown) [Example 79, 5-(2,5-dimethylpiperazin-1-yl)-N-[1-methyl-3-(trifluoromethyl)-1H-pyrazol-4-yl]pyrazolo[1,5-a]pyrimidine-3-carboxamide trifluoroacetate], the half-inhibitory concentration (IC50) (read-out: IRAK4 IC50) is 62 nM. Take `O=C(Nc1cn(C(F)F)nc1C(F)(F)F)c1cnn2ccc(N3CC4CCC3CN4)nc12` (stereo not shown) [Example 67, 5-(2,5-diazabicyclo[2.2.2]oct-2-yl)-N-[1-(difluoromethyl)-3-(trifluoromethyl)-1H-pyrazol-4-yl]pyrazolo[1,5-a]pyrimidine-3-carboxamide trifluoroacetate]: the 50% inhibitory concentration (IC50) (read-out: IRAK4 IC50) was determined as 74 nM. On to `N#Cc1ccccc1NC(=O)c1cnn2ccc(NC3CCCCNC3)nc12` (stereo not shown) [Example 272, 5-(azepan-3-ylamino)-N-(2-cyanophenyl)pyrazolo[1,5-a]pyrimidine-3-carboxamide trifluoroacetate], for which the IC50 (read-out: IRAK4 IC50) came out at 57 nM. With `O=C(Nc1ccsc1Br)c1cnn2ccc(N3CC4CCC3CN4)nc12` (stereo not shown) [Example 142, N-(2-bromothiophen-3-yl)-5-(2,5-diazabicyclo[2.2.2]oct-2-yl)pyrazolo[1,5-a]pyrimidine-3-carboxamide trifluoroacetate], for the setting “read-out: IRAK4 IC50”, the IC50 was 524 nM. In the case of `Cn1cc(NC(=O)c2cnn3ccc(N4CCCNC5(CC5)C4)nc23)c(C(F)(F)F)n1` [Example 227, 5-(4,8-diazaspiro[2.6]non-8-yl)-N-[1-methyl-3-(trifluoromethyl)-1H-pyrazol-4-yl]pyrazolo[1,5-a]pyrimidine-3-carboxamide], under “read-out: IRAK4 IC50”, the IC50 stood at 451 nM. Take `Cn1cc(NC(=O)c2cnn3ccc(N4CC5CC(C4)N5)nc23)c(C(F)(F)F)n1` [Example 19, 5-(3,6-diazabicyclo[3.1.1]hept-3-yl)-N-[1-methyl-3-(trifluoromethyl)-1H-pyrazol-4-yl]pyrazolo[1,5-a]pyrimidine-3-carboxamide trifluoroacetate]: where the note is “read-out: IRAK4 IC50”, the IC50 is 389 nM. Turning to `Cn1cc(NC(=O)c2cnn3ccc(N[C@H]4CNC[C@H](F)C4)nc23)c(C(F)F)n1` [Example 261, N-[3-(difluoromethyl)-1-methyl-1H-pyrazol-4-yl]-5-{[(3R,5R)-5-fluoropiperidin-3-yl]amino}pyrazolo[1,5-a]pyrimidine-3-carboxamide trifluoroacetate], the half-inhibitory concentration (IC50) (read-out: IRAK4 IC50) was 0.5 nM. For `Cn1cc(NC(=O)c2cnn3ccc(N4[C@@H]5CCNC[C@H]4CC5)nc23)c(C(F)(F)F)n1` (single isomer, unassigned) [Example 221, 5-[(1R,6S)- or (1S,6R)-3,9-diazabicyclo[4.2.1]non-9-yl]-N-[1-methyl-3-(trifluoromethyl)-1H-pyrazol-4-yl]pyrazolo[1,5-a]pyrimidine-3-carboxamide trifluoroacetate], where the note is “read-out: IRAK4 IC50”, the half-maximal inhibitory concentration (IC50) is 330 nM. For the compound `O=C(Nc1cn(CC(F)(F)F)nc1C(F)(F)F)c1cnn2ccc(N3CCNCC4(CC4)C3)nc12` [Example 70, 5-(5,8-diazaspiro[2.6]non-5-yl)-N-[1-(2,2,2-trifluoroethyl)-3-(trifluoromethyl)-1H-pyrazol-4-yl]pyrazolo[1,5-a]pyrimidine-3-carboxamide trifluoroacetate], under “read-out: IRAK4 IC50”, the half-inhibitory concentration (IC50) worked out at 51 nM. With `Cn1cc(NC(=O)c2cnn3ccc(N4CCCNCC4)nc23)c(C#N)n1` [Example 125, N-(3-cyano-1-methyl-1H-pyrazol-4-yl)-5-(1,4-diazepan-1-yl)pyrazolo[1,5-a]pyrimidine-3-carboxamide trifluoroacetate], the IC50 (read-out: IRAK4 IC50) was 119 nM. Turning to `N#Cc1ccccc1NC(=O)c1cnn2ccc(N[C@@H]3CCCC[C@@H]3O)nc12` [Example 266, N-(2-cyanophenyl)-5-{[(1R,2S)-2-hydroxycyclohexyl]amino}pyrazolo[1,5-a]pyrimidine-3-carboxamide trifluoroacetate], the half-maximal inhibitory concentration (IC50) (read-out: IRAK4 IC50) was 562 nM.

As to `O=C(Nc1ccsc1Cl)c1cnn2ccc(N[C@@H]3CCCC[C@@H]3O)nc12` [Example 185, N-(2-chlorothiophen-3-yl)-5-{[(1R,2S)-2-hydroxycyclohexyl]amino} pyrazolo[1,5-a]pyrimidine-3-carboxamide], the IC50 (read-out: IRAK4 IC50) was 1580 nM. Regarding `Cn1cc(NC(=O)c2cnn3ccc(NC4CCCCNC4)nc23)c(C(F)(F)F)n1` (stereo not shown) [Example 12, 5-(azepan-3-ylamino)-N-[1-methyl-3-(trifluoromethyl)-1H-pyrazol-4-yl]pyrazolo[1,5-a]pyrimidine-3-carboxamide hydrochloride], for the setting “read-out: IRAK4 IC50”, the IC50 was found to be 6 nM.

Take `Cn1cc(NC(=O)c2cnn3ccc(N[C@@H]4CCCC(F)[C@@H]4N)nc23)c(C(F)(F)F)n1` (single isomer, unassigned) [Example 203, 5-{[(1R,2R)- or (1S,2S)-2-amino-3-fluorocyclohexyl]amino}-N-[1-methyl-3-(trifluoromethyl)-1H-pyrazol-4-yl]pyrazolo[1,5-a]pyrimidine-3-carboxamide]: for the setting “read-out: IRAK4 IC50”, the half-inhibitory concentration (IC50) amounted to 7 nM. Same read-out and setting: then `N[C@H]1CCCC[C@H]1Nc1ccn2ncc(C(=O)Nc3cscc3Cl)c2n1` [Example 168, 5-{[(1R,2S)-2-aminocyclohexyl]amino}-N-(4-chlorothiophen-3-yl)pyrazolo[1,5-a]pyrimidine-3-carboxamide trifluoroacetate], with 1 nM; and `O=C(Nc1ccccc1Cl)c1cnn2ccc(N3CCCNCC3)nc12` [Example 105, N-(2-chlorophenyl)-5-(1,4-diazepan-1-yl)pyrazolo[1,5-a]pyrimidine-3-carboxamide trifluoroacetate], with 1270 nM; and `N[C@H]1CCCC[C@H]1Nc1ccn2ncc(C(=O)Nc3ccsc3C(F)(F)F)c2n1` [Example 144, 5-{[(1R,2S)-2-aminocyclohexyl]amino}-N-[2-(trifluoromethyl)thiophen-3-yl]pyrazolo[1,5-a]pyrimidine-3-carboxamide trifluoroacetate], with 7 nM.

Regarding `Cn1cc(NC(=O)c2cnn3ccc(N4C[C@@H](N)C[C@@H](F)C4)nc23)c(C(F)F)n1` [Example 249, 5-[(3S,5R)-3-amino-5-fluoropiperidin-1-yl]-N-[3-(difluoromethyl)-1-methyl-1H-pyrazol-4-yl]pyrazolo[1,5-a]pyrimidine-3-carboxamide trifluoroacetate], the 50% inhibitory concentration (IC50) (read-out: IRAK4 IC50) is 1 nM. Turning to `Cn1cc(NC(=O)c2cnn3ccc(N[C@H]4CNCCC4(F)F)nc23)c(C(F)F)n1` (single isomer, unassigned) [Example 242, N-[(R or S)-3-(difluoromethyl)-1-methyl-1H-pyrazol-4-yl]-5-[(4,4-difluoropiperidin-3-yl)amino]pyrazolo[1,5-a]pyrimidine-3-carboxamide trifluoroacetate], the IC50 (read-out: IRAK4 IC50) came out at 2 nM.

For `Cn1cc(NC(=O)c2cnn3ccc(N[C@@H]4CCCC[C@@H]4N4CCOCC4)nc23)c(C(F)(F)F)n1` [Example 264, N-(1-Methyl-3-(trifluoromethyl)-1H-pyrazol-4-yl)-5-(((1R,2S)-2-morpholinocyclohexyl)amino)pyrazolo[1,5-a]pyrimidine-3-carboxamide], the IC50 (read-out: IRAK4 IC50) was 19 nM. On the same count and under the same terms, then `Cn1cc(NC(=O)c2cnn3ccc(N4CC5CCC4CN5)nc23)c(Br)n1` (stereo not shown) [Example 140, N-(3-bromo-1-methyl-1H-pyrazol-4-yl)-5-(2,5-diazabicyclo[2.2.2]oct-2-yl)pyrazolo[1,5-a]pyrimidine-3-carboxamide trifluoroacetate], with 42 nM.

The IC50 is the point on the concentration scale where inhibition reaches its midpoint.
